Source: patent publication US20250290117A1, “MOLECULAR PHENOTYPIC ANTIMICROBIAL SUSCEPTIBILITY TESTING” (priority 2024, published 2025)

Experiments:
P. aeruginosa = assay: Molecular phenotypic antimicrobial susceptibility test with direct PCR (no extraction DNA purification step); type: cell-based, Pseudomonas aeruginosa; settings: for Ct at Sensitive Breakpoint: P. aeruginosa isolate MRSN1938, Ct at control (average) 12.031; for Molecular Antimicrobial Susceptibility Result: P. aeruginosa isolate MRSN1938, at sensitive breakpoint
Protocol: (§1) Detection of Molecular Phenotypic Antimicrobial Susceptibility. Disclosed herein are the methods for the detection of phenotypic antimicrobial susceptibility via molecular methods. The present invention describes how a specimen 100 with a known microbial load is incubated and then exposed to a panel of antimicrobial agents to determine sensitivity (prevention of growth) or resistance (allowance of growth) to the specific antimicrobial agents tested utilizing molecular methods.
(§2) Sample Collection. Specimens 100 are collected from patients using sterile collection processes that are employed in routine clinical care. Specimens are transported to the testing facility in boric acid preservative. Specimens 100 are subsequently divided into a first sample 104 and a second sample 108.
(§3) Preparation of the Specimens for Testing. The specimens 100 are put through a pathogen identification process using PCR technology (e.g., using the first sample 104). The process for pathogen isolation includes steps of harvesting the pathogen (e.g., via centrifugation), isolating pathogen DNA via a DNA isolation and/or purification kit, and performing PCR on the pathogen DNA via PCR components (e.g., primers, enzymes, buffers) as would be known to the skilled artisan. Simultaneously, an additional aliquot of the same specimen (e.g., the second sample 108) is placed with liquid culture media and incubated for 4-6 hours. This aliquot is used for antimicrobial susceptibility testing if indicated based on the pathogen detection results. After pathogen identification is completed and if more than 10,000 cells/mL of bacteria (e.g., eligible bacteria) are detected in the source specimen, the second sample 108 then enters the antimicrobial susceptibility phase of testing. Specimens 100 with lower pathogen loads could also be utilized in the antibiotic susceptibility phase of testing with or without a longer incubation period.
(§4) Preparation of Antimicrobial Susceptibility Testing Plates. Antimicrobial solutions are prepared at known concentrations. The specific antimicrobials and their concentrations are selected based on the pathogen of interest and the described antimicrobial resistance breakpoints for that specimen pathogen and antimicrobial combination. These antimicrobials have been selected based on those commonly utilized by healthcare providers in routine clinical care for the specific type of suspected infection. The number and types of antimicrobials utilized can be customized based on the infection source, pathogen detected, patient-specific factors such as allergies or other health conditions (e.g., chronic kidney disease or concurrent medication use), or healthcare provider preferences such as antimicrobial availability or cost.
(§5) The antimicrobial solutions are prepared in liquid culture media (such as Muller Hinton Broth) to achieve the desired antimicrobial concentration and are then stored at −80° C. until use. For a given specimen, each antimicrobial is tested at a single or multiple antimicrobial concentration(s) which is its established breakpoints for sensitivity. The antimicrobial solutions are prepared and plated out for each specific pathogen. This allows ease of use on the day of testing after defrosting the plate 112. Table 1, which illustrates the results of molecular phenotypic antimicrobial susceptibility testing when more than one organism is present in the source specimen, provides an example of an antimicrobial plate 112 prepared for this purpose. Of note, control wells containing only culture media are present on all plates 112. This allows for evaluation of pathogen load when no antimicrobial is present.
(§6) Specimen Exposure to Antimicrobial Agents. The 1 mL aliquot of the specimen 100 previously mixed with culture media and incubated is obtained. Using optical density measurements as a guide, the specimen 100 is diluted to 0.5 McFarland. […]

[1] = tested on: Staphylococcus epidermidis; assay: Molecular phenotypic antimicrobial susceptibility test (semi-quantitative PCR after antimicrobial exposure; extraction/DNA purification prior to PCR); type: cell-based
Protocol: as §1, §2, §3, §4, §5, §6

[2] = S. epidermidis isolate 1, Ct at control (average) 10.611
[3] = S. epidermidis isolate 1, at sensitive breakpoint
[4] = S. epidermidis isolate 2, Ct at control (average) 11.861
[5] = S. epidermidis isolate 2, at sensitive breakpoint
[6] = S. epidermidis isolate 3, Ct at control (average) 12.941
[7] = S. epidermidis isolate 3, at sensitive breakpoint
[8] = S. epidermidis isolate 4, Ct at control (average) 11.861
[9] = S. epidermidis isolate 4, at sensitive breakpoint
[10] = S. epidermidis isolate 5, Ct at control (average) 12.941
[11] = S. epidermidis isolate 5, at sensitive breakpoint

Compound	Ct at Sensitive Breakpoint (P. aeruginosa)	Molecular Antimicrobial Susceptibility Result (P. aeruginosa)	Ct at Sensitive Breakpoint [1, 2]	Molecular Antimicrobial Susceptibility Result [1, 3]	Ct at Sensitive Breakpoint [1, 4]	Molecular Antimicrobial Susceptibility Result [1, 5]	Ct at Sensitive Breakpoint [1, 6]	Molecular Antimicrobial Susceptibility Result [1, 7]	Ct at Sensitive Breakpoint [1, 8]	Molecular Antimicrobial Susceptibility Result [1, 9]	Ct at Sensitive Breakpoint [1, 10]	Molecular Antimicrobial Susceptibility Result [1, 11]
CO/N=C(\C(=O)N[C@@H]1C(=O)N2C(C(=O)[O-])=C(C[N+]3(C)CCCC3)CS[C@H]12)c1csc(N)n1 [Cefepime]	13.373	Sensitive (Antimicrobial wells with pathogen load detected below the control wells (typically >2 cycle thresholds later) may be reported as Sensitive)	11.785	Resistant	8.669	Resistant	8.646	Resistant	8.418	Resistant	8.474	Resistant
O=C(O)c1cn(C2CC2)c2cc(N3CCNCC3)c(F)cc2c1=O [Ciprofloxacin]	12.239	Resistant	–	–	–	–	–	–	–	–	–	–
C[C@H]1COc2c(N3CCN(C)CC3)c(F)cc3c(=O)c(C(=O)O)cn1c23 [Levofloxacin]	12.853	Resistant	–	–	–	–	–	–	–	–	–	–
C[C@@H](O)[C@H]1C(=O)N2C(C(=O)O)=C(S[C@@H]3CN[C@H](C(=O)N(C)C)C3)[C@H](C)[C@H]12 [Meropenem]	12.404	Resistant	–	–	–	–	–	–	–	–	–	–
CN[C@H](CC(C)C)C(=O)N[C@H]1C(=O)N[C@@H](CC(N)=O)C(=O)N[C@H]2C(=O)N[C@H]3C(=O)N[C@H](C(=O)N[C@H](C(=O)O)c4cc(O)cc(O)c4-c4cc3ccc4O)[C@H](O)c3ccc(c(Cl)c3)Oc3cc2cc(c3O[C@@H]2O[C@H](CO)[C@@H](O)[C@H](O)[C@H]2O[C@H]2C[C@](C)(N)[C@H](O)[C@H](C)O2)Oc2ccc(cc2Cl)[C@H]1O [Vancomycin]	–	–	12.950	Sensitive (Antimicrobial wells with pathogen load detected below the control wells (typically >2 cycle thresholds later) may be reported as Sensitive)	18.235	Sensitive (Antimicrobial wells with pathogen load detected below the control wells (typically >2 cycle thresholds later) may be reported as Sensitive)	18.173	Sensitive (Antimicrobial wells with pathogen load detected below the control wells (typically >2 cycle thresholds later) may be reported as Sensitive)	20.001	Sensitive (Antimicrobial wells with pathogen load detected below the control wells (typically >2 cycle thresholds later) may be reported as Sensitive)	8.719	Resistant
Piperacillin/Tazobactam	13.375	Sensitive (Antimicrobial wells with pathogen load detected below the control wells (typically >2 cycle thresholds later) may be reported as Sensitive)	–	–	–	–	–	–	–	–	–	–
Trimethoprim/Sulfamethoxazole [TMP/SMX]	–	–	10.79	Resistant	10.503	Resistant	11.341	Resistant	10.970	Resistant	12.620	Resistant
